# Several values for one entry are separate records, joined by “and”; a condition that tells them apart may be missing. Identical values can stand only once.
# What was measured:
# [1] = target: Glycogen synthase kinase-3 alpha (Homo sapiens, UniProt P49840); test: TR-FRET Assay
# Description: (§1) The assay was performed in a white, 384 well, low volume, flat bottom plate (Grenier). […] The kinase activity was quenched with 2 μL of 250 mM EDTA. A 10 μL volume of 40 nM Strepavidin-d2, 2 nM Tb2+-pSer641 antibody in TR-FRET Detection Buffer (Invitrogen) was then added.
# [2] = target: Glycogen synthase kinase-3 beta (Homo sapiens, UniProt P49841); test: TR-FRET Assay
# Sequence of Glycogen synthase kinase-3 beta (P49841 whole entry): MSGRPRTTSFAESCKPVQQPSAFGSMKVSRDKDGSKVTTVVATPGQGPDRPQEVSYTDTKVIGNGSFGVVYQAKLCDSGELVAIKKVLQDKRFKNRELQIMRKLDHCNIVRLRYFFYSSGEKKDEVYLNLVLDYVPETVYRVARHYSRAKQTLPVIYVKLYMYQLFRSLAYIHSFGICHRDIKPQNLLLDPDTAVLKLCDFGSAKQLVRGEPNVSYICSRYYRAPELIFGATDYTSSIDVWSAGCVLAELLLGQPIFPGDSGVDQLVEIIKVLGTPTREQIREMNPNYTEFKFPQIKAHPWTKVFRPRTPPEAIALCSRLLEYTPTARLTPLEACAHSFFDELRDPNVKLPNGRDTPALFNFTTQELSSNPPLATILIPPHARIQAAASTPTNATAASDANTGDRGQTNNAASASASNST
# Description: as §1
# Sequence of Glycogen synthase kinase-3 alpha (P49840 whole entry): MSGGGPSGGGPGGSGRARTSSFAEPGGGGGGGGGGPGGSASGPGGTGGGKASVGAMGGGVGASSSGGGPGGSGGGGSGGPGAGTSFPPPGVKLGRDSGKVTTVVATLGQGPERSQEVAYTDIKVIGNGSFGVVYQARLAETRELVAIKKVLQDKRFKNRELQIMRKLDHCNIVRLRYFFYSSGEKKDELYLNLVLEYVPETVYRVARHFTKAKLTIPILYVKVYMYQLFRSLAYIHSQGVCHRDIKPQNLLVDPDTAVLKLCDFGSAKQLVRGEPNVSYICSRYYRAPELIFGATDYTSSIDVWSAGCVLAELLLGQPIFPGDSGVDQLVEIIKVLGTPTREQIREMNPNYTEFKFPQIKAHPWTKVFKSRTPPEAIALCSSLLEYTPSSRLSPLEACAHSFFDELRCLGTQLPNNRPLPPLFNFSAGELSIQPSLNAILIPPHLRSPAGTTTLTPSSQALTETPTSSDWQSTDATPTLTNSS
SMILES,IC50 [1],IC50 [2]
"CC[C@@]1(c2ccccc2)C2=CN=NC2NC2=C1C(=O)[C@H](F)C(C)(C)C2 (some centres not stated) [US20250313563, Compound 826766]",100 to 1000 nM,100 to 1000 nM
"CC1(C)CC(=O)C2=C(C1)NC1=C(CN=N1)C21CCCCCC1 [US20250313563, Compound 883978]",100 to 1000 nM,100 to 1000 nM
"CC[C@@]1(c2cccc(C(F)(F)F)c2)C2=C(N=NC2)NC2=C1C(=O)N(C)C2(C)C [US20250313563, Compound 918252]",< 100 nM,100 to 1000 nM
"CC[C@@]1(c2cccc(-c3cc(C)nn3C)c2)C2=CN=NC2NC2=C1C(=O)CC(C)(C)[C@@H]2F (some centres not stated) [US20250313563, Compound 947657]",100 to 1000 nM,> 5000 nM
"CC[C@]1(c2cccc(C(F)(F)F)c2)C2=CN=NC2NC2=C1C(=O)C[C@@]1(CCNC1=O)C2 (some centres not stated) [US20250313563, Compound 950332]",> 5000 nM,> 5000 nM
"CN1CC2(C1)C1=C(N=NC1)NC1=C2C(=O)CC(C)(C)C1 [US20250313563, Compound 913264]",< 100 nM,< 100 nM
"CCC1(c2cccc(OC)c2)C2=C(CC(C)(C)NC2=O)NC2N=NC(C(F)(F)F)=C21 (configuration not stated) [US20250313563, Compound 949748]",< 100 nM,100 to 1000 nM
"CC1(C)CC(=O)C2=C(C1)NC1=C(CN=N1)C21COC2(CN(C(=O)C3(F)CCC3)C2)C1 (configuration not stated) [US20250313563, Compound 947279]",< 100 nM,< 100 nM
"CC[C@@]1(c2cccc(C(F)(F)F)c2)C2=C(N=NC2)NC2=C1C(=O)N(Cc1ccccc1)[C@@H]2C [US20250313563, Compound 930332]",1000 to 5000 nM,> 5000 nM
"CC[C@]1(c2cccc(C3=CN=NC3)c2)C2=C(CC(C)(C)NC2=O)NC2N=NC(C(F)(F)F)=C21 (some centres not stated) [US20250313563, Compound 948307]",< 100 nM,< 100 nM
"CC[C@@]1(c2cccc(-c3cnn4c3CC(C)(C)CC4)c2)C2=CN=NC2NC2=C1C(=O)NC(C)(C)C2 (some centres not stated) [US20250313563, Compound 950564]",< 100 nM,100 to 1000 nM
"CC[C@@]1(c2cccc(C3CC3)c2)C2=CN=NC2NC2=C1C(=O)CC(C)(C)C2 (some centres not stated) [US20250313563, Compound 811557]",< 100 nM and 100 to 1000 nM,< 100 nM and 1000 to 5000 nM
"CC[C@]1(c2cccc(-c3ccnc(C)c3)c2)C2=CN=NC2NC2=C1C(=O)N[C@]1(CCOC1)C2 (some centres not stated) [US20250313563, Compound 948141]",1000 to 5000 nM,> 5000 nM
"CN1CCC2(CC1)C1=C(N=NC1)NC1=C2C(=O)CC(C)(C)C1 [US20250313563, Compound 826714]",> 5000 nM,> 5000 nM
"CC[C@]1(c2cccc(N(C)c3cccnn3)c2)C2=CN=NC2NC2=C1C(=O)CC(C)(C)C2 (some centres not stated) [US20250313563, Compound 911975]",100 to 1000 nM,1000 to 5000 nM
"CCC1(c2cccc(-c3ccnc(CCO)c3)c2)C2=CN=NC2NC2=C1C(=O)CC(C)(C)C2 (configuration not stated) [US20250313563, Compound 945992]",< 100 nM,100 to 1000 nM
"CC[C@@]1(c2cccc(-c3cnn(C)c3)c2)C2=CN=NC2NC2=C1C(=O)CC(C)(C)[C@@H]2F (some centres not stated) [US20250313563, Compound 957511]",< 100 nM and 100 to 1000 nM,100 to 1000 nM and > 5000 nM
"CC[C@]1(c2cccc(-c3cncn3C)c2)C2=CN=NC2NC2=C1C(=O)CC(C)(C)C2 (some centres not stated) [US20250313563, Compound 945620]",100 to 1000 nM,1000 to 5000 nM
"CC[C@]1(c2ccccc2)C2=C(CC(C)(C)CC2=O)NC2N=NC(Br)=C21 (some centres not stated) [US20250313563, Compound 792341]",100 to 1000 nM,100 to 1000 nM
"CCC1(c2cccc(-c3cnn(C)n3)c2)C2=CN=NC2NC2=C1C(=O)CC(C)(C)C2 (configuration not stated) [US20250313563, Compound 947492]",< 100 nM,1000 to 5000 nM
"CC[C@]1(c2cccc(Cl)c2)C2=C(CC(C)(C)CC2=O)NC2N=NC(C(F)(F)F)=C21 (some centres not stated) [US20250313563, Compound 801308]",< 100 nM,< 100 nM and 100 to 1000 nM
"CC1(C)CC(=O)C2=C(C1)NC1=C(CN=N1)[C@]21CCN(S(=O)(=O)CC2CC2)C1 [US20250313563, Compound 943481]",< 100 nM and 100 to 1000 nM,< 100 nM and 100 to 1000 nM
"CCC1(c2cccc(C3=CN=NC3)c2)C2=C(CC(C)(C)NC2=O)NC2N=NC(C)=C21 (configuration not stated) [US20250313563, Compound 945459]",< 100 nM,< 100 nM

SMILES,IC50 [1],IC50 [2]
"CCC1(c2cccc(S(=O)(=O)C3CC(F)(F)C3)c2)C2=CN=NC2NC2=C1C(=O)CC(C)(C)C2 (configuration not stated) [US20250313563, Compound 944019]",< 100 nM,< 100 nM
"Cn1nccc1-c1cccc2c1CCC[C@]21C2=CN=NC2NC2=C1C(=O)CC(C)(C)C2 (some centres not stated) [US20250313563, Compound 945552]",100 to 1000 nM,> 5000 nM
"O=C1C[C@]2(CCOC2)CC2=C1C1(CCOCC1)C1=C(N=NC1)N2 [US20250313563, Compound 901476]",100 to 1000 nM,100 to 1000 nM
"CCN(c1cccnc1)c1cccc([C@@]2(CC)C3=CN=NC3NC3=C2C(=O)CC(C)(C)C3)c1 (some centres not stated) [US20250313563, Compound 917088]",100 to 1000 nM,1000 to 5000 nM
"CC[C@@]1(c2cccc(-c3ccnc(C)c3OC)c2)C2=CN=NC2NC2=C1C(=O)CC(C)(C)C2 (some centres not stated) [US20250313563, Compound 945997]",< 100 nM and 100 to 1000 nM,< 100 nM and 1000 to 5000 nM
"CC[C@@]1(c2cccc(-c3ccncc3F)c2)C2=CN=NC2NC2=C1C(=O)CC(C)(C)C2 (some centres not stated) [US20250313563, Compound 943519]",100 to 1000 nM,1000 to 5000 nM
"CCC1(c2cccc(-c3ncnc(C)c3C)c2)C2=CN=NC2NC2=C1C(=O)CC(C)(C)C2 (configuration not stated) [US20250313563, Compound 948090]",< 100 nM,100 to 1000 nM
"CC[C@@]1(c2cccc(N(C)c3cccc(C)n3)c2)C2=CN=NC2NC2=C1C(=O)CC(C)(C)C2 (some centres not stated) [US20250313563, Compound 932664]",< 100 nM,100 to 1000 nM
"CCC1(c2cccc(N(C)c3ccccn3)c2)C2=CN=NC2NC2=C1C(=O)CC(C)(C)C2 (configuration not stated) [US20250313563, Compound 874294]",< 100 nM,100 to 1000 nM
"COc1cncc(F)c1-c1cccc([C@]2(C)C3=C(CC(C)(C)CC3=O)NC3=C2C(CC(C)(C)C)N=N3)c1 (some centres not stated) [US20250313563, Compound 108954]",1000 to 5000 nM,100 to 1000 nM
"CC[C@@]1(c2cccc(C(F)(F)F)c2)C2=CN=NC2NC2=C1C(=O)CC(C)(C)C2 (some centres not stated) [US20250313563, Compound 790755]",100 to 1000 nM,> 1700 nM
"CC[C@]1(c2cccc(C(F)(F)F)c2)C2=C(CC(C)(C)CC2=O)NC2N=NC(C)=C21 (some centres not stated) [US20250313563, Compound 810368]",100 to 1000 nM,> 1670 nM
"CC[C@]1(c2ccccc2)C2=CN=NC2NC2=C1C(=O)C[C@](C)(COC)C2 (some centres not stated) [US20250313563, Compound 816875]",100 to 1000 nM,1000 to 5000 nM
"CC[C@@]1(c2cccc(C(F)(F)F)c2)C2=CN=NC2NC2=C1C(=O)N(Cc1ccccc1)CC2 (some centres not stated) [US20250313563, Compound 912006]",> 5000 nM,> 5000 nM
"CCC1(c2cccc(-c3ccnc(C(C)(C)C)c3)c2)C2=CN=NC2NC2=C1C(=O)CC(C)(C)C2 (configuration not stated) [US20250313563, Compound 947490]",100 to 1000 nM,1000 to 5000 nM
"CC[C@]1(c2cccc(N3CCOc4ccccc43)c2)C2=CN=NC2NC2=C1C(=O)CC(C)(C)C2 (some centres not stated) [US20250313563, Compound 932635]",> 5000 nM,> 5000 nM
"CC1(C)CC(=O)C2=C(C1)NC1=C(CN=N1)C21CN(C2CCOCC2)C1 [US20250313563, Compound 932651]",> 5000 nM,> 5000 nM
"CC[C@]1(c2ccccc2)C2=CN=NC2NC2=C1C(=O)[C@H](F)C(C)(C)C2 (some centres not stated) [US20250313563, Compound 957406]",> 5000 nM,> 5000 nM
"CC[C@]1(c2cccc(N(C)c3ccnc(F)c3)c2)C2=CN=NC2NC2=C1C(=O)CC(C)(C)C2 (some centres not stated) [US20250313563, Compound 929444]",< 100 nM,< 100 nM
"CCC1(CC)C2=C(N=NC2)NC2=C1C(=O)CC(C)(C)C2 [US20250313563, Compound 810505]",1000 to 5000 nM,> 5000 nM
"CC(=O)N1CC[C@]2(C1)C1=C(N=NC1)NC1=C2C(=O)CC(C)(C)C1 [US20250313563, Compound 889583]",1000 to 5000 nM,> 5000 nM
"CC[C@@]1(c2cccc(-c3cnn(CCOC)c3)c2)C2=CN=NC2NC2=C1C(=O)NC(C)(C)C2 (some centres not stated) [US20250313563, Compound 949105]",< 100 nM,100 to 1000 nM
"CCC1(c2cccc(-c3ccncc3CO)c2)C2=CN=NC2NC2=C1C(=O)CC(C)(C)C2 (configuration not stated) [US20250313563, Compound 943539]",< 100 nM,< 100 nM

# From BindingDB's records for patent US20250313563 (The Broad Institute, 2025)
